According to EP4817611A1, “PHARMACEUTICAL COMPOSITION” (EA Pharma Co., Ltd., priority 2023, dated 2025):

Tests used:
[1] = One-month stability test in sealed glass vial under three storage conditions; decomposition product 1 by HPLC; format: physicochemical; conditions: Compound (2) HCl 62.5 mg + acidic substance 62.5 mg
Procedure: When the hydrochloride of the compound represented by the formula (2) (hereinafter referred to as "Compound (2) HCl") is decomposed, the following decomposition products 1 and 2 are produced. [drawing 9]
The amount of the decomposition product 1 produced was measured over time by HPLC to evaluate the stability of the pharmaceutical composition. The HPLC analysis conditions are as follows. When airtight conditions were employed in the stability test, aluminum packaging was used.
• Detector: UV absorption photometer (measurement wavelength: 256 nm) • Column: InertSustain AQ-C18 HP 3 µm, 3.0 × 150 mm (reverse-phase C18 column) • Column temperature: a constant temperature around 25°C • Mobile phase A: 50 mmol/L ammonium formate buffer solution (pH: 4) • Mobile phase B: 50 mmol/L ammonium formate buffer solution (pH: 4) : acetonitrile = 1:4 • Flow rate: 1.0 ml/min
• Time: 0 → 20 • Mobile phase A (%): 95 → 0 • Mobile phase B (%): 5 → 100
The formulation in Table 5-1 (the types of acidic substances are listed in Table 5-2) was mixed in a mortar to prepare a pharmaceutical composition, which was then sealed in a glass vial, and a one-month stability test was performed under three storage conditions (airtight conditions at 4°C, airtight conditions at 60°C, and open conditions at 60°C). As a reference example, a stability test was also performed on the active ingredient alone (without an acidic substance).

[2] = recorded in the Chemical Book; cited from earlier work

Row | Content of decomposition product 1 (%) (4°C, airtight) ([1]; 4°C, airtight, glass vial) | Content of decomposition product 1 (%) (60°C, airtight) ([1]; 60°C, airtight, glass vial) | Content of decomposition product 1 (%) (60°C, open, 75% RH) ([1]; 60°C, open, 75% RH) | Structure (SMILES) | pKa [2]
1 | 0.03 | 0.05 | 0.10 | CC(C)(Cc1ccc(C(=O)Oc2ccc(C(=N)N)cc2F)s1)C(=O)O [Reference example] | 
2 |  |  |  | N[C@@H](CC(=O)O)C(=O)O [aspartic acid] | 1.99
